Test results: US20200024278A1, “COMPOSITION COMPRISING ANTIBIOTIC COMPOUND AND AN HETEROCYCLIC COMPOUND AND THEIR USE IN PREVENTING OR TREATING BACTERIAL INFECTIONS” (MUTABILIS, priority 2016, published 2020)

Assays:
Experiment in all cases: MIC, broth microdilution (CLSI), substance alone or ATB combined with compound at 4 or 8 μg/mL
ECL P99 = format: cell-based, E. cloacae; conditions: ECL P99
How it was run: (§1)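 Per CLSI-M7-A7, MICs are determined in cation-adjusted Mueller-Hinton broth with a final inoculum of 5·10^5 CFU/mL. Plates incubate 16-20 h at 35° C in air and are read by eye. Fosfomycin assays carry 25 μg/ml glucose-6-phosphate.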

PAE 105250 = format: cell-based, P. aeruginosa; conditions: PAE 105250
How it was run: as §1

PAE UFR48 = format: cell-based, P. aeruginosa; conditions: PAE UFR48
How it was run: as §1

PAE UFR90 = format: cell-based, P. aeruginosa; conditions: PAE UFR90
How it was run: as §1

SAU 29213 = format: cell-based, S. aureus; conditions: SAU 29213
How it was run: as §1

SPN 49619 = format: cell-based, S. pneumoniae; conditions: SPN 49619
How it was run: as §1

C[C@@H](O)[C@H]1C(=O)N2C(C(=O)O)=C(SCCN=CN)C[C@H]12 [IMI]
MIC ATB combined with Example 11 @8 μg/ml (ECL P99; with Example 11 at 8 μg/ml): <0.031 µg/mL | MIC ATB combined with Example 12 @8 μg/ml (ECL P99; with Example 12 at 8 μg/ml): <0.031 µg/mL | MIC ATB combined with Example 13 @8 μg/ml (ECL P99; with Example 13 at 8 μg/ml): 0.063 µg/mL | MIC ATB combined with Example 14 @8 μg/ml (ECL P99; with Example 14 at 8 μg/ml): <0.031 µg/mL | MIC ATB combined with Example 15 @4 μgml (ECL P99; with Example 15 at 4 μg/ml): <0.031 µg/mL | MIC ATB combined with Example 16 @4 μg/ml (ECL P99; with Example 16 at 4 μg/ml): <0.031 µg/mL | MIC ATB alone (PAE 105250; antibiotic alone): 1 µg/mL | MIC ATB combined with Example 1 @8 μg/ml (PAE 105250; with Example 1 @8 μg/ml): <=0.031 μg/mL | MIC ATB combined with Example 1 @8 μg/ml (PAE 105250; with Example 1 at 8 μg/ml): <=0.031 μg/mL | MIC ATB combined with Example 7 @8 μgml (PAE 105250; with Example 7 at 8 μg/ml): 16 µg/mL | MIC ATB combined with Example 9 @4 μg/ml (PAE 105250; with Example 9 @4 μg/ml): 1 µg/mL | MIC ATB combined with Example 9 @4 μg/ml (PAE 105250; with Example 9 at 4 μg/ml): 1 µg/mL | MIC ATB combined with Example 11 @8 μg/ml (PAE 105250; with Example 11 at 8 μg/ml): 1 µg/mL | MIC ATB combined with Example 12 @8 μg/ml (PAE 105250; with Example 12 at 8 μg/ml): 2 µg/mL | MIC ATB combined with Example 13 @8 μg/ml (PAE 105250; with Example 13 at 8 μg/ml): 8 µg/mL | MIC ATB combined with Example 14 @8 μg/ml (PAE 105250; with Example 14 at 8 μg/ml): 2 µg/mL | MIC ATB combined with Example 15 @4 μgml (PAE 105250; with Example 15 at 4 μg/ml): 2 µg/mL | MIC ATB combined with Example 16 @4 μg/ml (PAE 105250; with Example 16 at 4 μg/ml): 2 µg/mL | MIC ATB alone (PAE UFR48; antibiotic alone): 8 µg/mL | MIC ATB combined with Example 1 @8 μg/ml (PAE UFR48; with Example 1 @8 μg/ml): <0.031 µg/mL | MIC ATB combined with Example 1 @8 μg/ml (PAE UFR48; with Example 1 at 8 μg/ml): <0.031 µg/mL | MIC ATB combined with Example 7 @8 μgml (PAE UFR48; with Example 7 at 8 μg/ml): >32 µg/mL | MIC ATB combined with Example 9 @4 μg/ml (PAE UFR48; with Example 9 @4 μg/ml): 8 µg/mL | MIC ATB combined with Example 9 @4 μg/ml (PAE UFR48; with Example 9 at 4 μg/ml): 16 µg/mL | MIC ATB combined with Example 11 @8 μg/ml (PAE UFR48; with Example 11 at 8 μg/ml): >32 µg/mL | MIC ATB combined with Example 12 @8 μg/ml (PAE UFR48; with Example 12 at 8 μg/ml): >32 µg/mL | MIC ATB combined with Example 13 @8 μg/ml (PAE UFR48; with Example 13 at 8 μg/ml): >32 µg/mL | MIC ATB combined with Example 14 @8 μg/ml (PAE UFR48; with Example 14 at 8 μg/ml): >32 µg/mL | MIC ATB combined with Example 15 @4 μgml (PAE UFR48; with Example 15 at 4 μg/ml): >32 µg/mL | MIC ATB combined with Example 16 @4 μg/ml (PAE UFR48; with Example 16 at 4 μg/ml): >32 µg/mL | MIC ATB alone (PAE UFR90; antibiotic alone): 2 µg/mL | MIC ATB combined with Example 1 @8 μg/ml (PAE UFR90; with Example 1 @8 μg/ml): <0.031 µg/mL | MIC ATB combined with Example 1 @8 μg/ml (PAE UFR90; with Example 1 at 8 μg/ml): <0.031 µg/mL | MIC ATB combined with Example 7 @8 μgml (PAE UFR90; with Example 7 at 8 μg/ml): 32 µg/mL | MIC ATB combined with Example 9 @4 μg/ml (PAE UFR90; with Example 9 @4 μg/ml): 1 µg/mL | MIC ATB combined with Example 9 @4 μg/ml (PAE UFR90; with Example 9 at 4 μg/ml): 1 µg/mL | MIC ATB combined with Example 11 @8 μg/ml (PAE UFR90; with Example 11 at 8 μg/ml): 1 µg/mL | MIC ATB combined with Example 12 @8 μg/ml (PAE UFR90; with Example 12 at 8 μg/ml): 2 µg/mL | MIC ATB combined with Example 13 @8 μg/ml (PAE UFR90; with Example 13 at 8 μg/ml): 16 µg/mL | MIC ATB combined with Example 14 @8 μg/ml (PAE UFR90; with Example 14 at 8 μg/ml): 2 µg/mL | MIC ATB combined with Example 15 @4 μgml (PAE UFR90; with Example 15 at 4 μg/ml): 2 µg/mL | MIC ATB combined with Example 16 @4 μg/ml (PAE UFR90; with Example 16 at 4 μg/ml): 4 µg/mL | MIC ATB alone (SAU 29213; antibiotic alone): 0.016 µg/mL | MIC ATB combined with Example 1 @8 μg/ml (SAU 29213; with Example 1 @8 μg/ml): <=0.031 μg/mL | MIC ATB combined with Example 1 @8 μg/ml (SAU 29213; with Example 1 at 8 μg/ml): <=0.031 μg/mL | MIC ATB combined with Example 7 @8 μgml (SAU 29213; with Example 7 at 8 μg/ml): 0.25 µg/mL | MIC ATB combined with Example 9 @4 μg/ml (SAU 29213; with Example 9 @4 μg/ml): <0.031 µg/mL | MIC ATB combined with Example 9 @4 μg/ml (SAU 29213; with Example 9 at 4 μg/ml): <0.031 µg/mL | MIC ATB combined with Example 11 @8 μg/ml (SAU 29213; with Example 11 at 8 μg/ml): <0.031 µg/mL | MIC ATB combined with Example 12 @8 μg/ml (SAU 29213; with Example 12 at 8 μg/ml): <0.031 µg/mL | MIC ATB combined with Example 13 @8 μg/ml (SAU 29213; with Example 13 at 8 μg/ml): <=0.031 μg/mL | MIC ATB combined with Example 14 @8 μg/ml (SAU 29213; with Example 14 at 8 μg/ml): <0.031 µg/mL | MIC ATB combined with Example 15 @4 μgml (SAU 29213; with Example 15 at 4 μg/ml): <0.031 µg/mL | MIC ATB combined with Example 16 @4 μg/ml (SAU 29213; with Example 16 at 4 μg/ml): <0.031 µg/mL | MIC ATB alone (SPN 49619; antibiotic alone): 0.063 µg/mL | MIC ATB combined with Example 1 @8 μg/ml (SPN 49619; with Example 1 @8 μg/ml): <=0.031 μg/mL | MIC ATB combined with Example 1 @8 μg/ml (SPN 49619; with Example 1 at 8 μg/ml): <=0.031 μg/mL | MIC ATB combined with Example 7 @8 μgml (SPN 49619; with Example 7 at 8 μg/ml): <=0.031 μg/mL | MIC ATB combined with Example 9 @4 μg/ml (SPN 49619; with Example 9 @4 μg/ml): <0.031 µg/mL | MIC ATB combined with Example 9 @4 μg/ml (SPN 49619; with Example 9 at 4 μg/ml): <0.031 µg/mL | MIC ATB combined with Example 11 @8 μg/ml (SPN 49619; with Example 11 at 8 μg/ml): <=0.031 μg/mL | MIC ATB combined with Example 12 @8 μg/ml (SPN 49619; with Example 12 at 8 μg/ml): <0.031 µg/mL | MIC ATB combined with Example 13 @8 μg/ml (SPN 49619; with Example 13 at 8 μg/ml): <=0.031 μg/mL | MIC ATB combined with Example 14 @8 μg/ml (SPN 49619; with Example 14 at 8 μg/ml): <0.031 µg/mL | MIC ATB combined with Example 15 @4 μgml (SPN 49619; with Example 15 at 4 μg/ml): <0.031 µg/mL | MIC ATB combined with Example 16 @4 μg/ml (SPN 49619; with Example 16 at 4 μg/ml): <0.031 µg/mL
